Calls of active or inactive are those of the source.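 How the source made its calls: active means AC50 no more than tenfold above the top dose tested, or full inhibition at every dose with a flat fit (cut at about 19 µM in these data); inconclusive means flat curve fit with inhibition between 30% and 70%, or poor fit; inactive means AC50 more than tenfold above the top dose tested.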
System: HMLE_sh_eGFP viability, CellTiter-Glo luminescence, 72 h
Experiment: viability loss of HMLE_sh_eGFP cells – cell-based, luminescence, counter-screen for HMLE_sh_ECad selective toxicity project, dose response (AID 463074);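 further: counterscreen control line to flag general toxicity for the HMLE_sh_ECad screen; potency for loss of viability as luminescence drops below DMSO wells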

Structure (SMILES)	AC50
COc1ccc2sc(-c3ccccc3OC)c(-c3ccc(O)cc3)c2c1	6.71 µM
Cc1nnc(-c2ccc(Oc3ccc(Cl)cc3)c([N+](=O)[O-])c2)o1	0.33 µM
COc1ccc(NC(=O)c2cc3ccc(O)cc3o/c2=N\O)cc1	9.36 µM
CCN(CC)C1CCN(C(=O)c2cc(COc3ccc(F)cc3Cl)on2)C1 (stereo not drawn)	15.4 µM
CC1(C)C=Cc2c(ccc3c2OC[C@H](c2ccc(O)cc2O)C3)O1	4.43 µM
c1cc(SC2CCCCC2)cc(-c2nc3cnccn3c2NC2CCCCC2)c1	1.78 µM
O=c1cc(-c2ccc(O)cc2)oc2ccc3ccccc3c12	7.19 µM
Cc1ccc(COc2ccccc2-c2cc(C(=O)N/N=C/c3cccnc3)[nH]n2)cc1	12.6 µM
O=C(N/N=C/c1ccc(OC2CSC2)cc1)c1ccccc1	2.85 µM
Cc1ccc(-c2ccc([C@H]3[C@@H]4C=CCC[C@@]4(C)C(=O)N3Cc3ccccc3)c(F)c2)cc1	5.32 µM
COc1cccc(-c2sc3ccc(OC)cc3c2-c2ccc(O)cc2)c1	3.7 µM
CN1CCN(CCCNC(=O)c2ccc(/C=C3\Oc4ccccc4N(Cc4ccc(Cl)cc4)C3=O)cc2)CC1	3.31 µM
Cc1cccc(N2CCN(C(=S)Nc3ccc4nc(N5CCN(C)CC5)cc(C)c4c3)CC2C)c1 (stereo not drawn)	7.35 µM
CS(=O)(=O)Nc1ccccc1C(=O)Nc1cccc(Cl)c1	> 19.5 µM (inactive)
O=C(Nc1ccc(N2CCN(C(=O)c3cccs3)CC2)cc1)c1ccc([N+](=O)[O-])o1	1.87 µM
O=C(/C=C/c1ccccc1[N+](=O)[O-])c1ccccc1Br	3.64 µM
Cc1[nH]c2ccccc2c1/C=N/NC(=O)C1CC1(c1ccccc1)c1ccccc1 (stereo not drawn)	6.08 µM
CCCc1nc2ccccc2c(C(=O)OCC(=O)Nc2ccc(S(=O)(=O)N3CCOCC3)cc2)c1CC	5.86 µM
Cc1c(Cl)c([N+](=O)[O-])nn1Cc1ccc(C(=O)N/N=C\c2cc(Cl)ccc2O)o1	4.54 µM
COCCNC(=O)c1c[nH]c2ccc(S(=O)(=O)N3CCc4ccccc43)cc2c1=O	5.53 µM
CC[C@H]1CC2CN3CCc4c([nH]c5c([C@H]6C[C@H]7[C@H](CC)CN(C)[C@@H](Cc8c6[nH]c6ccccc86)[C@H]7C(=O)OC)c(OC)ccc45)C(C(=O)OC)(C2)C13	4.25 µM
C=CCCC(=O)Nc1nc(C)c(-c2csc(Nc3cc(OC)ccc3OC)n2)s1	1.02 µM
Cc1ccc(C(=O)CSC2=C(C#N)C(c3ccco3)C3=C(CC(C)(C)CC3=O)N2)cc1 (stereo not drawn)	3.33 µM
NS(=O)(=O)c1ccc(N/N=C/c2cn(-c3ccccc3)nc2-c2cccs2)c([N+](=O)[O-])c1	1.9 µM
CCOC(=O)C1=C(C)N2C(=C(C#N)[C@@H]1c1ccc(C(=O)OC)cc1)SC[C@@]2(O)C(C)(C)C	4.79 µM
Oc1ccccc1/C=N/Nc1nccnc1Cl	5.91 µM

Structure (SMILES)	AC50
COc1ccc(-c2sc3ccccc3c2C#Cc2cncn2C)cc1	4.83 µM
O=C(O)c1ccc(Cl)c(S(=O)(=O)N(Cc2ccccc2)c2ccc(F)cc2)c1	14.5 µM
Cc1cc(C)c2sc(N(CCCN(C)C)C(=O)c3ccc(S(=O)(=O)N4CCCc5ccccc54)cc3)nc2c1	3.73 µM
OC(COc1cccc2ccccc12)CN1CCN(c2ccc(Cl)cc2)CC1 (stereo not drawn)	7.09 µM
CC1=NN(c2ccccc2)C(=O)/C1=C/C=C/c1ccccc1	3.57 µM
Oc1ccc(Nc2nc(-c3ccc4ccccc4c3)cs2)cc1	7.1 µM
CN1CCN(c2ccc([N+](=O)[O-])c(NCc3ccco3)c2)CC1	12.9 µM
C[C@@H]1CC[C@H]2C(=O)N3[C@@H](CC[C@@H](C)[C@@H]3c3ccc(Br)cc3)C(=O)N2[C@H]1c1ccc(Br)cc1	4.41 µM
COc1ccc(CCN2C(=S)N(C)C(=O)C2CC(=O)Nc2ccc(OC)cc2)cc1 (stereo not drawn)	17.8 µM
CN(C)CCOc1ccc(-c2c(-c3ccsc3)sc3ccccc23)cc1	3.04 µM
NC(=O)c1ccc(NC(=O)COC(=O)c2c3c(nc4ccccc24)/C(=C\c2cccs2)CCC3)cc1	10.3 µM
Cc1nn(-c2ccccc2)c(C)c1/C=N/NC(=O)c1cc(-c2ccc(Br)s2)[nH]n1	4.72 µM
Cc1ccc(OCCSc2nc(NC(C)C)nc(NC(C)C)n2)cc1	1.46 µM
OCCCNc1cc(-c2ccccc2)nc2cc(-c3ccc(F)cc3)nn12	9.12 µM
Cc1ccc2nc(NC(=O)c3cccc(-c4cc5ccccc5oc4=O)c3)sc2c1	> 19.5 µM (inactive)
O=S(=O)([N-]c1nc2ccccc2nc1-[n+]1ccc(Cc2ccccc2)cc1)c1ccc(Br)s1	6.16 µM
Cc1cccc(Nc2nc(-c3ccc(O)cc3O)cs2)n1	7.5 µM
COc1ccc(Nc2nc(N)c([N+](=O)[O-])c(NC3CCCCC3)n2)cc1	4.58 µM
COc1ccc(Nc2nnc(-c3ccccc3)c3ccccc23)cc1C(=O)N1CCCCC1	> 19.5 µM (inactive)
Oc1ccc(N=Nc2c(O)ccc3ccccc23)cc1	5.36 µM
CC(C)(C)c1ccc(C(=O)NCCCN2CCN(CCCNC(=O)c3ccc(C(C)(C)C)cc3)CC2)cc1	3.25 µM
CC(C)(C)c1ccc(/C=C/C(=O)c2ccc(NC3=NCCCS3)cc2)cc1	6.11 µM
O=C(Nc1ccc(Cl)cc1)c1cc2c(cc1O)[nH]c1ccccc12	0.488 µM
Cc1cc(NCc2ccccn2)n2nc(C)c(-c3ccc(Cl)cc3)c2n1	5.92 µM
CCCCNc1c(-c2cccc(-c3cc(C(C)=O)cs3)c2)nc2ccc(C)cn12	3.48 µM
Cc1cc(C(=O)Nc2nc3c(s2)CCCC3)cs1	> 19.5 µM (inactive)

Structure (SMILES)	AC50
O=C(Nc1cccc(S(=O)(=O)Nc2ccc(Cl)cc2)c1)c1cc2c(s1)CCCC2	2.79 µM
Cc1c(C(=O)N(Cc2ccccc2)Cc2cccs2)cnn1-c1ccc(Cl)cc1	1.42 µM
CN(C)CCNc1nc2sc3c(c2c(=O)n1CCc1ccccc1)CCCCC3	7.1 µM
NCCc1ccc(OCc2ccccc2)c(OCc2ccccc2)c1	13.6 µM
Cc1ccc(NC(=O)c2nc[nH]c2C(=O)NCCCNC(=O)c2[nH]cnc2C(=O)Nc2ccc(C)cc2)cc1	3.86 µM
C[C@H](CO)N1C[C@H](C)[C@@H](CN(C)C(=O)Nc2ccc(C(F)(F)F)cc2)Oc2c(NC(=O)Nc3ccc(C(F)(F)F)cc3)cccc2C1=O	4.26 µM
CC(C)=CCc1c(O)cc2c(c1O)C(=O)CC(c1ccc(O)cc1)O2 (stereo not drawn)	3.74 µM
COc1ccc(-c2[nH]ncc2N=Nc2ccccc2)cc1	7.66 µM
Cc1ccc(C(=O)C(C(=O)/C=C/c2ccccc2)=C2SCCCS2)cc1	1.56 µM
O=[N+]([O-])c1cccc(-c2csc(Nc3ccccc3)n2)c1	3.88 µM
CC1(C)Cc2c(C#N)c(NC3CCCCC3)nc(-c3ccco3)c2CO1	7.19 µM
Cc1cccc(N/N=C(\C(N)=O)C2=NC(C)(C)Cc3ccccc32)c1	10.9 µM
COc1ccc(C(c2c[nH]c3ccccc23)c2c[nH]c3ccccc23)cc1O	4.62 µM
CC(C)N(CCC(=O)c1ccc2ccccc2c1)Cc1ccccc1	9.86 µM
CC(=O)NNc1cccc(Cl)n1	> 19.5 µM (inactive)
Cc1ccc(-c2cc(C(=O)NCc3ccc4c(c3)OCO4)no2)cc1	> 19.5 µM (inactive)
COc1cc(OC)cc(-c2cc3ccc(OC)cc3cn2)c1	5.43 µM
CCN1C(=O)C(CC(=O)Nc2ccc(F)cc2)N(CCCN2CCN(c3ccc(F)cc3)CC2)C1=S (stereo not drawn)	6.83 µM
COc1cccc(-c2sc3ccccc3c2-c2ccc(OCCN(C)C)cc2)c1	3.34 µM
Cc1ccc(-c2nc(CS(=O)CC(=O)NCc3ccc4c(c3)OCO4)c(C)o2)cc1 (stereo not drawn)	> 19.5 µM (inactive)
Cc1ccc(C(C)C)c(OCc2nn(CC(=O)c3ccc(OC(F)F)cc3)c3[n+]2CCCCC3)c1	4.17 µM
COC(=O)c1cc(=O)n(Cc2cccs2)c(=Nc2ccccc2)s1	4.57 µM
Cc1cccc(N=N/C(=C\O)C(=O)c2cccs2)c1	6.25 µM
O=C(Nc1ccc2nc3n(c(=O)c2c1)CCCCC3)c1cc([N+](=O)[O-])ccc1F	6.62 µM
Cc1ccc(Cl)cc1NC(=O)c1ccccc1OCC(=O)Nc1ccc(Cl)cc1	11.5 µM
N#CCSc1nc2c(c(=O)n1Cc1ccco1)C1(CCCC1)Cc1ccccc1-2	0.468 µM

Structure (SMILES)	AC50
Cc1[nH]nc2c1C(c1ccc(-c3ccc(Cl)cc3)o1)C(C#N)=C(N)O2 (stereo not drawn)	7.25 µM
O=C1C2C3C=CC(C4CC34)C2C(=O)N1/N=C/c1ccc(-c2ccc(F)cc2[N+](=O)[O-])o1 (stereo not drawn)	1.21 µM
COc1ccc(C)cc1N1C(=N)/C(=C2/Nc3ccccc3S2)C(c2ccccc2)C1=O (stereo not drawn)	17.8 µM
Cc1ccc(-c2nnc(Sc3nc4ccccc4o3)c3ccccc23)cc1	6.74 µM
COc1ccc(NC(=O)c2nc[nH]c2C(=O)N[C@@H](CC(C)C)C(=O)OC(C)(C)C)cc1	8.85 µM
CCCN1C/C(=C/c2ccc3c(c2)OCO3)C(=O)/C(=C/c2ccc3c(c2)OCO3)C1	1.12 µM
Cc1ccc(S(=O)(=O)N2CCCCC2)cc1NC(=O)Cn1ncc(Cl)c(Cl)c1=O	2.44 µM
CC(C)n1cnc2c(NCc3ccccc3)cc(Cc3ccc(F)cc3)cc21	4.67 µM
Cc1cc(C)c2c(c1)/C(=C/C(=O)c1ccc(Br)s1)C(=O)N2	5.47 µM
CCN(CC)CCNc1ncnc2c1sc1nc(N3CCOCC3)c3c(c12)CC(C)(C)SC3	6.99 µM
c1ccc(CNc2nc(N3CCN(Cc4ccccc4)CC3)nc3ccccc23)cc1	3.91 µM
CCOC(=O)c1cc(-c2cccs2)nc2c1c(C)nn2-c1ccccn1	11.8 µM
CCCNCC1C(Oc2ccc(Cl)cc2Cl)C(=O)N1c1cccc(C)c1C (stereo not drawn)	7.2 µM
CCc1ccc2nc(N(CCCN(C)C)C(=O)c3ccc(S(=O)(=O)N4CCCc5ccccc54)cc3)sc2c1	6.98 µM
C=CCc1cccc(CNc2nc3ccccc3n2CCC)c1O	13.5 µM
CCCOc1ccc(C(=O)C(CN2CCCC2)c2ccccc2)cc1 (stereo not drawn)	3.3 µM
COC(=O)c1ccc(/C=C/c2c(-c3ccsc3)oc3ccc(N4CCOCC4)cc23)cc1	6.37 µM
COc1ccc(/C=N/Nc2cc(N3CCCC3)nc(N3CCCC3)n2)cc1	5.14 µM
CC(=O)c1ccc(NC(=O)COC(=O)c2c3c(nc4ccccc24)/C(=C\c2cccs2)CCC3)cc1	4.54 µM
Cn1nc([N+](=O)[O-])c(C(C#N)c2ccccn2)c(Cl)c1=O (stereo not drawn)	15.3 µM
O=C(Nc1ccccc1)Nc1cc(Cl)cc(Cl)c1	5.13 µM
O=C1NC(=O)N(CCc2ccc(F)cc2)C(=O)/C1=C/C=C/c1ccccc1	3.91 µM
Clc1ccc(-c2nnc(-c3ccccc3)c(-c3ccccc3)n2)cc1	3.69 µM
COC(=O)c1sc2nc(N3CCCCC3)c3c(c2c1N)CCCC3	4.94 µM
O=C(/C=C/c1ccc2c(c1)OCO2)NCCSCc1c(Cl)cccc1Cl	2 µM
